We go through 26 compounds from PubChem BioAssay (NCI).

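Following 48 hours of exposure in 96-well plates, responses at five concentrations were used to interpolate endpoints linearly. TGI is the concentration that stops growth completely.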

Holding throughout (experiment): inhibition of tumour cell growth, NCI panel, 48 h
Experiment [1] relates to KM12 colon.
Experiment [2] deals with LOX IMVI melanoma.
The test system of experiment [3] is HOP-62 NSCLC.
For experiment [4], the system named is SR leukemia.
In experiment [5] the test system is OVCAR-8 ovarian.
For experiment [6], the system named is NCI/ADR-RES ovarian.
For experiment [7], the system named is SF-295 CNS.
The test system of experiment [8] is SK-MEL-5 melanoma.
The subject of experiment [9] is CCRF-CEM leukemia.
In experiment [10] the test system is MDA-N.

`O=C1CSC(c2c[nH]c3ccccc23)N1c1ccc(Cl)cc1Cl` (configuration not stated): the TGI in [1], in experiment [2], in [3], in experiment [4], in experiment [5] and in [6] was above 100 µM in each case. Further, the TGI in [7], in experiment [8], in experiment [9] and in [10] was above 100 µM throughout.

`CC1=NN2C(=N)/C(=C/c3ccc(F)cc3)C(=O)N=C2S1`: the TGI is above 100 µM in experiment [1]; above 100 µM in [2]; above 100 µM in experiment [3]; above 100 µM in experiment [4]; above 100 µM in [5]; 28.5 µM in [6]. Besides, the TGI in [7], in experiment [8], in experiment [9] and in experiment [10] was above 100 µM in each case.

As for `Cc1c(C(=O)NNc2ccccc2)n2c(=S)[nH]nc2c2ccccc12`, the TGI in experiment [1], in [2], in [3], in experiment [4], in experiment [5] and in [6] was above 100 µM throughout. The TGI in experiment [7], in experiment [8], in experiment [9] and in experiment [10] was above 100 µM in each case.

With `CC(C)=CCC[C@@H](C)C1=C(Nc2ccccc2F)C(O)=C(C)C(=O)C1=O`, the TGI was 19.4 µM in [1]; above 100 µM in experiment [2]; above 72.1 µM in [3]; above 100 µM in [4]; above 30.2 µM in experiment [5]; above 23.8 µM in experiment [6]. Besides, the TGI in experiment [7] was above 31.5 µM; in experiment [8], 14.8 µM; in experiment [9], 3.9 µM; in [10], above 100 µM.

As to `COc1cc2c(cc1OCc1ccccc1)NC(=O)[C@@H]1CCCN1C2=O`, the TGI in [1], in experiment [2], in experiment [3], in experiment [4], in experiment [5] and in experiment [6] was above 100 µM each time. Also, the TGI in experiment [7], in experiment [8], in [9] and in experiment [10] was above 100 µM in each case.

For the compound `C=C(C)[C@H]1CC23C(=O)[C@@](C)(C[C@H]2C1(C)C)C(=O)C(C(=O)C(C)C)=C3O`, the TGI in [1] was 41.1 µM; in experiment [2] it was 38.9 µM; in [3] it was 40.4 µM; in experiment [4], 38.7 µM; in experiment [5] it was 40.2 µM; in experiment [6], 27.8 µM. Moreover, the TGI in experiment [7] came to 36.7 µM; in experiment [8], 31.5 µM; in experiment [9] it was 24.9 µM; in experiment [10], 35.7 µM.

`Cn1c(=O)cc(NNc2ccc(Cl)c(Cl)c2)[nH]c1=O`: the TGI in experiment [1] was 30.2 µM; in experiment [2] it was 28.1 µM; in experiment [3], 31.3 µM; in [4], above 100 µM; in experiment [5] it was 31 µM; in experiment [6], 64.1 µM. In addition, the TGI in [7] came out at 43.2 µM; in [8] it was 19.3 µM; in experiment [9], 37.3 µM; in experiment [10], 23.3 µM.

On to `O=C1c2cc3c(cc2CC12Cc1ccc4c(c1C2=O)CCC4)CCC3` (configuration not stated), for which the TGI in experiment [2], in experiment [3], in experiment [4], in [5], in experiment [6] and in [7] was above 100 µM each time. For the same compound, the TGI in experiment [8], in experiment [9] and in [10] was above 100 µM each time.

As to `NCCCCNCCCN1CCOC1=O`, the TGI in experiment [1], in experiment [2], in [3], in experiment [4], in experiment [5] and in experiment [6] was above 100 µM throughout. Besides, the TGI in experiment [7], in [8], in experiment [9] and in experiment [10] was above 100 µM in each case.

As for `CSc1ncc2c(n1)-c1ccccc1OC2NC1CC1` (configuration not stated), the TGI in experiment [1], in [2], in experiment [4], in [5], in experiment [6] and in experiment [7] was above 100 µM throughout. Moreover, the TGI in experiment [8], in experiment [9] and in experiment [10] was above 100 µM in each case.

For `CCC1([N+](=O)[O-])CN(N=O)C1`, the TGI in [1], in experiment [2], in experiment [3], in experiment [4], in [5] and in experiment [6] was above 100 µM in each case. Besides, the TGI in experiment [7], in [8], in experiment [9] and in experiment [10] was above 100 µM throughout.

As to `Cc1nc2c(=O)n(-c3ccccc3)c(=O)n(-c3ccccc3)c2o1`, the TGI in experiment [1], in experiment [2], in experiment [3], in experiment [4], in experiment [5] and in experiment [6] was above 100 µM each time. For the same compound, the TGI in experiment [7], in experiment [8], in experiment [9] and in experiment [10] was above 100 µM in each case.

Take `CC1(C)OCC(C2OC(C)(C)OC2[C@H]2O[C@@]3(O)[C@H]4[C@H](C=CC[C@@H]42)[C@@H](OCc2ccccc2)[C@H](OCc2ccccc2)[C@H]3OCc2ccccc2)O1` (some centres not stated): the TGI in experiment [1] is above 100 µM; in [2] it was above 100 µM; in experiment [3], above 100 µM; in [4], 31.4 µM; in experiment [5] it was above 100 µM; in [6], above 100 µM. The TGI in experiment [7] is above 100 µM; in experiment [8], above 100 µM; in experiment [9], above 100 µM; in experiment [10], 44.8 µM.

Take `C=C1C[C@@H]2O[C@H]3[C@H]4[C@@H](C[C@@H](C)[C@@H](OC(C)=O)[C@H]42)[C@@H](C)CO[C@@]3(C)[C@H](OC(=O)CCCCCCC)CC1=O`: the TGI in experiment [1] is 26.2 µM; in experiment [2] it was 30.1 µM; in experiment [3], 29.8 µM; in experiment [4], 37.2 µM; in experiment [5], 30.9 µM; in experiment [6], 35.5 µM. The TGI was determined as 33.6 µM in experiment [7], 28.4 µM in experiment [8], 23.8 µM in experiment [9] and 31 µM in experiment [10].

`CSc1ccc(/C=C2\N=C(c3ccccc3)N(c3nc4cc(Cl)c(F)cc4s3)C2=O)cc1`: the TGI in [1] is above 100 µM; in experiment [2], 55.6 µM; in experiment [3] it was 98.7 µM; in experiment [4], above 100 µM; in experiment [5], 51.7 µM; in experiment [6], 99.1 µM. Further, the TGI in [7] was above 100 µM; in experiment [8], above 100 µM; in experiment [9], 55.6 µM; in experiment [10] it was above 100 µM.

Take `CC1(C)C=C(/C=C2/N(S(=O)(=O)C(F)(F)F)C(/C=C3/N(S(=O)(=O)C(F)(F)F)C(C)(C#N)CC3(C)C)=CC2(C)C)N=C1/C=C1/CC(C)(C)C(=O)N1` (configuration not stated): the TGI in [1] was above 100 µM; in experiment [2], 72.9 µM; in [3] it was above 100 µM; in [4] it was above 100 µM; in experiment [5], above 100 µM; in experiment [6] it was above 100 µM. Besides, the TGI in experiment [7] was above 100 µM; in [8], 71.6 µM; in experiment [9] it was 52.8 µM; in experiment [10], above 100 µM.

In the case of `CSc1nc(=O)c2nc(-c3cccs3)c(-c3cccs3)nc2n1C`, the TGI in [1] is above 100 µM; in experiment [2], above 100 µM; in [3], 47.2 µM; in [4], above 100 µM; in [5], above 100 µM; in [6], above 100 µM. In addition, the TGI in experiment [7], in experiment [8], in experiment [9] and in experiment [10] was above 100 µM each time.

Consider `Clc1ccc(/C(=C/c2ccccc2)Cn2ccnc2)cc1`, for which the TGI was above 100 µM in experiment [1]; 91.1 µM in experiment [2]; above 100 µM in experiment [3]; 78.4 µM in experiment [4]; above 100 µM in experiment [5]; 66.6 µM in experiment [6]. In addition, the TGI in [7] is above 100 µM; in [8], 36.4 µM; in experiment [9] it was above 100 µM; in experiment [10] it was 46.6 µM.

As for `CCCCNC(=O)Cn1c2ccc(Br)cc2c2nc3ccccc3nc21`, the TGI in experiment [1], in experiment [2], in [3], in experiment [4], in experiment [5] and in experiment [6] was above 100 µM throughout. Further, the TGI in experiment [7], in experiment [8], in [9] and in [10] was above 100 µM throughout.

Consider `O=C1C=CC(=O)c2c(O)c(N3CCC[C@@H]3CO)c(Cl)c(O)c21`, for which the TGI in [1] came to 3.16 µM; in experiment [2], 3.16 µM; in experiment [3], 3.06 µM; in experiment [4], 4.88 µM; in experiment [5] it was 4.13 µM; in experiment [6], 6.25 µM. Moreover, the TGI came to 3.25 µM in experiment [7], 2.28 µM in experiment [8], 0.869 µM in experiment [9] and 3.15 µM in experiment [10].

For `CC(=O)/C(=N\Nc1ccc(Cl)cc1)C(C)=Nc1ccc(C)cc1`, the TGI in experiment [1], in experiment [2], in experiment [4], in [5], in [6] and in experiment [7] was above 100 µM each time. In addition, the TGI is 38.8 µM in experiment [8], 37.7 µM in experiment [9] and above 100 µM in experiment [10].

Take `CCOC(=O)N1CCN(c2c(N)nc(C)[nH]c2=O)CC1`: the TGI in experiment [1], in experiment [2], in experiment [3], in [4], in experiment [5] and in [6] was above 100 µM each time. The TGI in experiment [7], in [9] and in experiment [10] was above 100 µM each time.

Turning to `CO[P@@]1(=O)O[C@@H](c2ccccc2)[C@H](O)[C@]1(O)c1ccccc1`, the TGI in [1], in experiment [2], in [4], in experiment [5], in [6] and in experiment [7] was above 100 µM in each case. The TGI in experiment [8], in [9] and in experiment [10] was above 100 µM throughout.

`Nc1c(N2CCOCC2)c(=O)nc2[nH]/c(=C\c3ccccc3O)c(=O)n12`: the TGI in experiment [1], in [2], in experiment [4], in experiment [5], in experiment [6] and in experiment [7] was above 100 µM each time. The TGI in [8], in [9] and in experiment [10] was above 100 µM in each case.

In the case of `O=c1c2c3c(sc2nc2n1N=C(c1ccc(Br)cc1)CS2)CCCC3`, the TGI in experiment [1], in [2], in experiment [3], in experiment [4], in experiment [5] and in [6] was above 100 µM throughout. Further, the TGI in experiment [7], in experiment [9] and in experiment [10] was above 100 µM each time.

Turning to `Cc1cc(S(=O)(=O)N=C2Nc3cccc4cccc(c34)N2)c(S)cc1Cl`, the TGI in [1], in [2], in experiment [4], in experiment [5], in experiment [6] and in [7] was above 100 µM throughout. Moreover, the TGI in [8], in experiment [9] and in experiment [10] was above 100 µM in each case.
